Results from US9840532B2, “5′-substituted nucleoside compounds” (Eli Lilly and Company, priority 2015, dated 2017).

tested on: PRMT5-mediated retention of exon 6 in the processed MDM4 mRNA in A375 tumor cells; experiment: Mouse A375 Xenograft Tumor MDM4 Exon5/6 RNA Splicing Assay; type: in vivo; conditions: A-375, PO given QD or BID, tumors 4 hr after last dose, 4 days of dosing, read-out: dose achieving 50% effect (ED50)
Procedure: The purpose of this assay is to measure the ability of a test compound to inhibit PRMT5-mediated retention of exon 6 in the processed MDM4 mRNA in A375 tumor cells in a mouse tumor xenograft model. This assay represents the effect of a test compound on specific PRMT5-mediated splicing events in tumors in an animal model.
Grow A375 cells in medium (DMEM high glucose/10% Hi FBS) at 37° C. in an incubator (5% CO2) for 18-24 hr. Mix the cells with MATRIGEL® (1:1) and implant the cells (5×10^6/animal) subcutaneously into the rear flank of the mice (female nude mice, Harlan). The implanted tumor cells grow as solid tumors. Measure the tumor volume and body weight twice a week with a caliper. After tumor volume reaches approximately 200-250 mm^3 (about 20 days after implant), randomize the animals, and group them into compound treatment groups. Administer the test compounds (formulated in SWFI with 1% HEC/0.25% TWEEN® 80/0.05% Antifoam) by oral gavage. Test compound doses are in the range of 3 to 100 mg/kg. Sacrifice mice 4 hr after the last dose (4 days of dosing).
Harvest tumor tissues and homogenize as described below. Place tumor samples in a bowl and add 1 mL of liquid N2. Squash the tumor in the bowl. Transfer small pieces of tumor (about 20 mg each) into 2 lysing matrix D tubes (MPBIO cat. #6913-250). Use one tube for RNA processing and the other for protein lysate preparation. For RNA processing, homogenize the tumor tissues in an RNEASY® Mini Kit (QIAGEN-74104) extraction buffer (0.5 mL each) for 30 seconds using a Bio101 FastPrep FP120 homogenizer (setting 6). Total RNA is purified with QUARTZY® RNEASY® Mini Kit −50 (QIAGEN-74104, RNEASY® Mini Handbook, Fourth Edition, June 2012). Check the RNA concentration to ensure OD 260/280 […]≧1.9. For cDNA synthesis use A&B APPLIED BIOSYSTEMS®, High Capacity cDNA Reverse Transcription Kit (cat. #4368813). Use 1 μg total RNA (10 μL) in each RT reaction volume of 20 μL, containing 10×RT Buffer—2.0 μL; 25×dNTP Mix (100 mM)—0.8 μL; 10×RT Random Primers—2.0 μL; MULTISCRIBE™ Reverse Transcriptase—1.0 μL; Nuclease-free H2O—[…]. […]

Row | SMILES | ED50 [mg/kg]
1 | Nc1ncnc2c1ccn2[C@@H]1O[C@H]([C@H](O)c2ccccc2)[C@@H](O)[C@H]1O [Example 2, (2R,3R,4S,5R)-2-(4-Aminopyrrolo[2,3-d]pyrimidin-7-yl)-5[(R)-hydroxy(phenyl)methyl]tetrahydrofuran-3,4-diol] | ≤ 30
2 | Nc1ncnc2c1ccn2[C@@H]1O[C@H]([C@H](O)c2ccc(Cl)cc2)[C@@H](O)[C@H]1O [Example 1, (2R,3R,4S,5R)-2-(4-Aminopyrrolo[2,3-d]pyrimidin-7-yl)-5-[(R)-(4-chlorophenyl)-hydroxy-methyl]tetrahydrofuran-3,4-diol] | ≤ 30
3 | C[C@@](O)(c1ccc(Cl)cc1)[C@H]1O[C@@H](n2ccc3c(N)ncnc32)[C@H](O)[C@@H]1O [Example 3, (2R,3R,4S,5S)-2-(4-Aminopyrrolo[2,3-d]pyrimidin-7-yl)-5-[(1R)-1-(4-chlorophenyl)-1-hydroxy-ethyl]tetrahydrofuran-3,4-diol] | ≤ 30
